Where “and” joins values, the source holds several entries; their conditions need not be identical. Equal values may be shown once.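 These data come from cells grown in 96-well plates and exposed to compound for 48 hours at five concentrations. At the GI50, growth is halved. TGI denotes the concentration required for complete inhibition of growth.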
Experiments:
Test in all cases: NCI tumour cell line growth inhibition, 48 h
SK-OV-3 ovarian = system: SK-OV-3 ovarian
SN12C renal = system: SN12C renal
OVCAR-3 ovarian = system: OVCAR-3 ovarian
HS 578T breast = system: HS 578T breast
CCRF-CEM leukemia = system: CCRF-CEM leukemia
MCF7 breast = system: MCF7 breast
CAKI-1 renal = system: CAKI-1 renal
MDA-N = system: MDA-N
SF-539 CNS = system: SF-539 CNS
HCC-2998 colon = system: HCC-2998 colon
RPMI-8226 leukemia = system: RPMI-8226 leukemia
LOX IMVI melanoma = system: LOX IMVI melanoma
HL-60(TB) leukemia = system: HL-60(TB) leukemia

| Structure (SMILES) | TGI (SK-OV-3 ovarian) | TGI (SN12C renal) | TGI (OVCAR-3 ovarian) | TGI (HS 578T breast) | TGI (CCRF-CEM leukemia) | TGI (MCF7 breast) | TGI (CAKI-1 renal) | TGI (MDA-N) | TGI (SF-539 CNS) | TGI (HCC-2998 colon) | TGI (RPMI-8226 leukemia) | TGI (LOX IMVI melanoma) | TGI (HL-60(TB) leukemia) | GI50 (SK-OV-3 ovarian) | GI50 (OVCAR-3 ovarian) | GI50 (HS 578T breast) | GI50 (MDA-N) | GI50 (SF-539 CNS) | GI50 (HCC-2998 colon) | GI50 (LOX IMVI melanoma) |
| --- | --- | --- | --- | --- | --- | --- | --- | --- | --- | --- | --- | --- | --- | --- | --- | --- | --- | --- | --- | --- |
| CCn1c(=O)c2c3ccc(O)cc3[nH]c2c2ccc(O)cc21 | > 100 µM | > 100 µM | > 100 µM | > 100 µM | > 100 µM | > 100 µM | > 100 µM | > 100 µM | > 100 µM | > 100 µM |  |  |  |  |  |  |  |  |  |  |
| CC(=O)OC1(C)CC(C)C(=O)C(C(O)CC2CC(=O)NC(=O)C2)C1 (stereo not drawn) | 1.44 µM |  | 1.62 µM |  |  | 0.0813 µM |  | 0.204 µM and 0.215 µM |  | 0.0409 µM | 0.0162 µM | 0.296 µM and 0.103 µM |  |  |  |  |  |  |  |  |
| Nc1n[nH]c(N)n1 | > 3570 µM | > 8900 µM | > 10000 µM | > 10000 µM | > 9030 µM | > 10000 µM | 8860 µM | > 10000 µM | 8860 µM | > 10000 µM | > 10000 µM | 7400 µM | 7060 µM |  |  |  |  |  |  |  |
| NCCNc1ccc(NCCN)c2c1C(=O)c1c(O)ccc(O)c1C2=O |  | 0.0799 µM and 0.0776 µM | 2.18 µM and 1.66 µM | 0.851 µM and 0.902 µM | 3.79 µM | 4.51 µM and 1.27 µM | 0.879 µM and 0.123 µM | 2.33 µM and 1.43 µM | 0.932 µM and 0.261 µM | 1.24 µM | 0.692 µM | 0.252 µM and 0.214 µM |  | 0.0151 µM | 0.385 µM | 0.225 µM | 0.26 µM | < 0.0112 µM | 0.147 µM | 0.031 µM |
| Oc1ccccc1CNCc1ccccc1O | > 100 µM | > 100 µM | > 100 µM | > 100 µM | > 100 µM | > 100 µM | > 100 µM | > 100 µM | > 100 µM | 36.7 µM | > 100 µM | > 100 µM | > 100 µM |  |  |  |  |  |  |  |
| CCN(CC)CCCNC(=O)c1ccccc1Nc1c(Cl)cccc1Cl | 27.7 µM | 27.2 µM |  |  | 21.3 µM |  |  |  | 23.7 µM | 21.3 µM | 20.5 µM | 22.3 µM | 12.5 µM |  |  |  |  |  |  |  |
| CCCCCC1CC(C(C)=O)CN1c1ccc(F)cc1 (stereo not drawn) |  | > 100 µM | 90.1 µM |  |  |  |  |  | > 100 µM | > 100 µM |  | > 100 µM | > 10 µM |  |  |  |  |  |  |  |
| O=c1[nH]c(Br)nc2n[nH]nc12 | > 100 µM | > 100 µM | > 100 µM | > 100 µM | > 100 µM | > 100 µM | > 100 µM | > 100 µM | 94.9 µM | > 100 µM | > 100 µM | > 100 µM | > 100 µM |  |  |  |  |  |  |  |
| CCC/C=C/C=C\C(=O)O[C@@H]1[C@@H](C)[C@]2(O)[C@@H]3C=C(C)C(=O)[C@H]3CC(COC(C)=O)=C[C@H]2[C@@H]2C(C)(C)[C@]12OC(C)=O | 143 µM | 100 µM | 91.2 µM |  | 36.2 µM | 83.1 µM | 72.2 µM |  | 83.5 µM | 58.3 µM | 95.8 µM | 57.7 µM | 30.5 µM |  |  |  |  |  |  |  |
| CC(=O)C(C(=O)C(=O)Nc1cc(Cl)c(Cl)cc1Cl)c1csc(N)n1 (stereo not drawn) | > 100 µM | > 100 µM |  |  | > 100 µM |  | > 100 µM |  | > 100 µM | > 100 µM | > 100 µM | > 100 µM | > 100 µM |  |  |  |  |  |  |  |
| O=C(N/N=C/c1cc(Cl)cc(Cl)c1[O-])c1ccccc1O.O=C(N/N=C/c1cc(Cl)cc(Cl)c1[O-])c1ccccc1O.[Cu+2] | 1.38 µM |  | 0.778 µM |  |  |  | 1.13 µM |  | 1.02 µM | 1.46 µM |  | 1.46 µM | 0.512 µM |  |  |  |  | 0.306 µM |  |  |
| NC1C2C=CC(C2)C1C(=O)O (stereo not drawn) | > 100 µM | > 100 µM | > 100 µM | > 100 µM | > 100 µM | > 100 µM | > 100 µM | > 100 µM | > 100 µM |  | > 100 µM | > 100 µM | > 100 µM |  |  |  |  |  |  |  |

Source: PubChem BioAssay (NCI)
